Reference: US20260274857A1, “CRYSTAL OF DIHYDROPYRIDINONE DERIVATIVE OR SOLVATE THEREOF” (Shionogi & Co., Ltd., priority 2022, published 2026)
Blank lines part the entries; values can stand above or below the molecule they belong to.

What was measured:
Assay type in all cases: physicochemical
[1] = Powder solubility test (JP-1, JP-2, TCA/JP2); settings: 37° C., 1 hour; for JP1 solubility: JP-1 solution; for TCA/JP2 solubility: JP-2 solution added with taurocholic acid; for JP2 solubility: JP-2 solution
Experimental: The solubility of the crystal of the present invention was evaluated with respect to the solubility when JP-1 solution, JP-2 solution, and JP-2 solution added with taurocholic acid (TCA/JP2) were used as a measurement medium. Evaluation was performed at a dissolved concentration (μg/mL) by an HPLC method.
About 1 mg of the crystal of the present invention was weighed in a 4 mL glass container, and 2 mL of JP-2 solution (1000 mL of water was added to 1.70 g of potassium dihydrogen phosphate and 1.775 g of anhydrous disodium hydrogen phosphate) was added to each container. The mixture was sealed with a polyethylene stopper with Teflon and silicone packing, shaken at 37° C. for 1 hour, and then filtered, and 400 μL of methanol was added to 800 μL of the filtrate to perform 1.5 fold dilution. Whether there were bubbles and precipitates was confirmed, and the compound of the crystal of the present invention was quantified using HPLC by an absolute calibration curve method to calculate the solubility.

[2] = Moisture adsorption/desorption isotherm measurement (DVS); settings: 25° C.; for difference in water content between 0% RH and 95% RH: DVS
From the text: The moisture adsorption/desorption isotherm measurement is a measurement method for measuring the adsorption and desorption behavior of moisture by measuring a weight change in a solid as a measurement target under each relative humidity condition.
As a basic measurement method, based on the dry weight at 0% RH (relative humidity 0%), the relative humidity is increased every 5% or 10%, and after the weight is stabilized at each relative humidity, the amount of adsorbed water can be determined from the weight increase from the reference value. Similarly, the desorption amount of water can be measured by decreasing the relative humidity every 5% or 10% from 100% RH or 95% RH.
By plotting the value of the weight change at each relative humidity, an adsorption/desorption isotherm can be obtained.
Sorption and desorption of adhesion water and crystal water are affected by particle size, crystallinity, crystal habit, and the like, so that the measurement results may slightly change.
The crystals and amorphous substances obtained in each Example were weighed in an aluminum pan, and allowed to stand at 25° C. and a relative humidity of 0%. The measurement was started after the compound was sufficiently dried and the weight was stabilized, and the weight when the relative humidity changed from 0% to 95% by 5% was recorded. Next, the weight when the relative humidity changed from 95% to 0% by 5% was recorded.
Device: DVS Advantage manufactured by Surface Measurement Systems

[3] = Test Example 2: solid stability, 40° C. 89% RH 3 months, amount of analogous substance
Experimental: The crystal and amorphous substance of the compound represented by Formula (I) obtained in Example 1 were stored (40° C., 89% RH 3M) in a hermetically sealed container at 40° C. and a relative humidity of 89% for 3 months, and subjected to a solid stability test to evaluate the amount of an analogous substance.
The crystal or amorphous substance of the compound represented by Formula (I) obtained in Example 1 was dissolved in an acetonitrile aqueous solution (acetonitrile:water=1:1) to prepare a sample solution to be exactly 500 μg/mL.
The purity and the amount of the analogous substance were measured by an area percentage method under the HPLC conditions 1 described in Test Example 1.
The results of the crystal and amorphous substance of the compound represented by Formula (I) obtained in Example 1 are described in the following table. Impurities detected at a retention time (RT, retention time) of 17.527 minutes indicate an increase amount with respect to a standard product.

[4] = Solid stability test: storage stability (amount of analogous substance by HPLC, appearance); settings: temperature, temperature and humidity conditions, light irradiation; analogous substance by HPLC and appearance
Experimental: For the solid stability of the crystal of the compound represented by Formula (I) obtained in Example 1 and the crystal of the compound represented by Formula (II) obtained in Example 16, the chemical stability under temperature, temperature and humidity conditions, and light irradiation was evaluated. The proportion (%) of the analogous substance produced by an HPLC method and the change in appearance were evaluated.
About 10 mg of the crystal was accurately weighed in a 2 mL glass container with a polyethylene stopper. After the glass container was closed, the glass container was stored at 40° C. or 60° C. for 2 weeks, 1 month, 2 months, 3 months, or 6 months. A sample stored at 40° C. is referred to as a 40° C. hermetically sealed product, and a sample stored at 60° C. is referred to as a 60° C. hermetically sealed product. In a state where the glass container was opened, the glass container was stored at a relative humidity of 75±5% at 40° C. or a relative humidity of 89±5% for 2 weeks, 1 month, 2 months, 3 months or 6 months, or in the presence of silica gel at 40° C. for 1 month, 2 months, 3 months or 6 months. A sample stored at 40° C. and a relative humidity of 75±5% or 89±5% is referred to as a 40° C. and 75% relative humidity (also referred to as 40±2° C./75±5% RH) or 40° C. and 89% relative humidity (also referred to as 40±2° C./89% RH) stored product, and a sample stored in the presence of silica gel at 40° C. is referred to as a 40° C. stored product. The −40° C. hermetically sealed product was used as a standard product.
The amount of the analogous substance was measured by an area percentage method by the HPLC method under the following conditions.
HPLC Conditions 1 were used for the crystal and amorphous substance of the compound represented by Formula (I) obtained in Example 1, and HPLC conditions 2 were used for the crystal of the compound represented by Formula (II) obtained in Example 16.
• Detector: ultraviolet absorptiometer (measurement wavelength: 260 nm) • Column: YMC-Triart C18 ExRS, S-1.9 μm, 3.0×100 mm • Column temperature: constant temperature at near 40° C. • Mobile phase A: 0.1% formic acid aqueous solution • Mobile phase B: acetonitrile • Flow rate: about 0.6 mL/min • Injection amount: 3 μL • Sample cooler temperature: about 6° C. • Feed of mobile phase: The mixing ratio of mobile phase A and mobile phase B was changed as shown in Table 18 to control concentration gradient.
Column: Cortecs (2.7 μm 3.0×100 mm)
Column temperature: 40° C.
UV detection wavelength: 254 nm

JP1 solubility [1]: 59.4 µg/mL
TCA/JP2 solubility [1]: 143.1 µg/mL
JP2 solubility [1]: 74.1 µg/mL
Structure (SMILES): Cc1ccc(-n2nc3c(c2NC(=O)CS(C)(=O)=O)C(=O)NC2(CCOc4cc(F)cc(F)c42)C3)nc1 (stereo not drawn) [Compound crystal of Formula (I)]

JP1 solubility [1]: 33.6 µg/mL
TCA/JP2 solubility [1]: 73.6 µg/mL
JP2 solubility [1]: 37.5 µg/mL
Structure (SMILES): CS(=O)(=O)CC(=O)Nc1c2c(nn1CCCOC(F)(F)F)CC1(CCOc3cc(OCC(F)(F)F)ccc31)NC2=O (stereo not drawn) [Compound crystal of Formula (II)]

difference in water content between 0% RH and 95% RH [2]: about 7.0%
impurities detected at a retention time of 17.527 minutes, increase with respect to standard product (in words) [3]: greatly increased
Structure (SMILES): Cc1ccc(-n2nc3c(c2NC(=O)CS(C)(=O)=O)C(=O)N[C@@]2(CCOc4cc(F)cc(F)c42)C3)nc1 [amorphous substance of the compound represented by Formula (]

difference in water content between 0% RH and 95% RH [2]: about 1.4%
Moisture adsorption amount ([2]; relative humidity 0.0%): 0.000%
Moisture desorption amount ([2]; relative humidity 0.0%): 0.063%
Moisture adsorption amount ([2]; relative humidity 5.0%): 0.064%
Moisture desorption amount ([2]; relative humidity 5.0%): 0.153%
Moisture adsorption amount ([2]; relative humidity 10.0%): 0.115%
Moisture desorption amount ([2]; relative humidity 10.0%): 0.230%
Moisture adsorption amount ([2]; relative humidity 15.0%): 0.174%
Moisture desorption amount ([2]; relative humidity 15.0%): 0.316%
Moisture adsorption amount ([2]; relative humidity 20.0%): 0.234%
Moisture desorption amount ([2]; relative humidity 20.0%): 0.395%
Moisture adsorption amount ([2]; relative humidity 25.0%): 0.321%
Moisture desorption amount ([2]; relative humidity 25.0%): 0.509%
Moisture adsorption amount ([2]; relative humidity 30.0%): 0.449%
Moisture desorption amount ([2]; relative humidity 30.0%): 0.638%
Moisture adsorption amount ([2]; relative humidity 35.0%): 0.549%
Moisture desorption amount ([2]; relative humidity 35.0%): 0.740%
Moisture adsorption amount ([2]; relative humidity 40.0%): 0.639%
Moisture desorption amount ([2]; relative humidity 40.0%): 0.830%
Moisture adsorption amount ([2]; relative humidity 45.0%): 0.719%
Moisture desorption amount ([2]; relative humidity 45.0%): 0.917%
Moisture adsorption amount ([2]; relative humidity 50.0%): 0.798%
Moisture desorption amount ([2]; relative humidity 50.0%): 0.989%
Moisture adsorption amount ([2]; relative humidity 55.0%): 0.867%
Moisture desorption amount ([2]; relative humidity 55.0%): 1.052%
Moisture adsorption amount ([2]; relative humidity 60.0%): 0.925%
Moisture desorption amount ([2]; relative humidity 60.0%): 1.113%
Moisture adsorption amount ([2]; relative humidity 65.0%): 1.003%
Moisture desorption amount ([2]; relative humidity 65.0%): 1.179%
Moisture adsorption amount ([2]; relative humidity 70.0%): 1.070%
Moisture desorption amount ([2]; relative humidity 70.0%): 1.237%
Moisture adsorption amount ([2]; relative humidity 75.0%): 1.150%
Moisture desorption amount ([2]; relative humidity 75.0%): 1.288%
Moisture adsorption amount ([2]; relative humidity 80.0%): 1.196%
Moisture desorption amount ([2]; relative humidity 80.0%): 1.314%
Moisture adsorption amount ([2]; relative humidity 85.0%): 1.266%
Moisture desorption amount ([2]; relative humidity 85.0%): 1.369%
Moisture adsorption amount ([2]; relative humidity 90.0%): 1.350%
Moisture desorption amount ([2]; relative humidity 90.0%): 1.407%
Moisture adsorption amount ([2]; relative humidity 95.0%): 1.426%
Moisture desorption amount ([2]; relative humidity 95.0%): 1.426%
Structure (SMILES): Cc1ccc(-n2nc3c(c2NC(=O)CS(C)(=O)=O)C(=O)N[C@@]2(CCOc4cc(F)cc(F)c42)C3)nc1 [crystal of the compound represented by Formula (I) obtained ]
solid stability (in words) [4]: excellent in solid stability under any conditions
impurities detected at a retention time of 17.527 minutes, increase with respect to standard product (in words) [3]: increase in impurities could be greatly suppressed
